“Also recorded” adds a separate entry of the source. Read-outs that look alike come from different tables or passages of the source.
Tests used:
RARα = target: T1, RARα (Homo sapiens, UniProt P10276); conditions: CV-1 cells
T1 sequence (P10276 1-462): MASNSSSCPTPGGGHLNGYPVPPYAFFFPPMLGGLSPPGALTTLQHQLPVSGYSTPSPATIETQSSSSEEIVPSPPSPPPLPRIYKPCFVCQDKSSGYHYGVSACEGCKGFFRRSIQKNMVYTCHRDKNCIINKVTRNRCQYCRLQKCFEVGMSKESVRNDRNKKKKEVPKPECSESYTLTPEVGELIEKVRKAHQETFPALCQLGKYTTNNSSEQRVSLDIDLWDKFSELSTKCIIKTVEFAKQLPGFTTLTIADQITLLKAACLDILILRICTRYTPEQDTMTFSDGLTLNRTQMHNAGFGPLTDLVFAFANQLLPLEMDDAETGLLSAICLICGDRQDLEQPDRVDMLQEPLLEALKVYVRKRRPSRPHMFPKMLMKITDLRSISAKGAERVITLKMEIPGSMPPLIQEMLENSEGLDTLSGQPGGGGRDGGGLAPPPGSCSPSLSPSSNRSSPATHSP
Description: The antagonistic effects of UAB30 retinoids on the transcription of RARα were determined in CV-1 cells. The methods are nearly identical to those used to perform transcriptional assays. […] After 24 hours, cells were harvested and the transcriptional effects were measured relative CAT activity, after correction with β-gal activity for transfection efficiency. […] All experiments were performed in triplicate, and the data were averaged. […] These assays were performed in CV-1 cells with the RAR or RXR gene and the chloramphenicol acetyltransferase (CAT) reporter gene containing TREpal with a thymidine kinase promoter [(TREpal)2 -tk-CAT]. Twenty-four hours after transfection, cells were treated with a single dose of retinoid and the cell extracts were assayed for b-galactosidase and CAT activity. The antagonistic effects of UAB30 retinoids on the transcription of RAR-α were also determined in CV-1 cells. The methods are nearly identical to those used to perform transcriptional assays. These studies utilized the CAT reporter gene [(TREpal)2 -tk-CAT]. […] After 24 hours, cells were harvested and the transcriptional effects were measured in relative CAT activity, after correction with β-galactosidase activity for transfection efficiency. […] Experiments were performed in triplicate and the data were averaged.

JMML cells = test: inhibition of JMML spontaneous CFU-GM colony formation; conditions: Homo sapiens
Description: Mononuclear cells were separated by density gradient centrifugation, washed, and frozen in aliquots. […] No growth factors or other exogenous stimuli were added to the cultures. UAB retinoids and retinoic acid isomers were dissolved in either 100% ethanol or DMSO. Appropriate dilutions were made, and controls using the respective ethanol or DMSO concentration were set up in parallel. Varying doses of retinoids were added only once, 24 hours after initiation of the soft agar assays, by pipetting the retinoid solution on top of the soft agar and allowing the solution to enter the agar and interact with the cells by diffusion. The cultures were incubated for 14 days at 37° C. in a humidified atmosphere with 5% CO2.

HL-60 cells = test: retinoid induction of differentiation of HL-60 cells (NBT); assay type: cell-based; conditions: Homo sapiens, HL-60, 96 h; 4-day induction of differentiation; read-out: ED50 (nM) HL-60
Description: (§1) Human leukemia cell line HL-60 and NB4 were used for measuring the ability of retinoids to induce terminal differentiation. Both cell lines are predominantly promyelocytes and are induced by retinoic acid to mature to cells with many characteristics of mature granulocytes. The induction of this differentiation is the basis for assaying one of the biological activities of retinoic acid analogues. For the differentiation assay, HL-60 or NB4 cells were grown in nutrient medium with fetal bovine serum as detailed by Breitman (15).
(§2) The percentage of cells that gained this marker was measured microscopically. The percentage of positive cells was then plotted as a function of the retinoid concentration to determine ED50 and ED30 values used in the formation of isoboles.

[1] = system: MNU-induced mammary cancers; test: efficacy on MNU-induced mammary cancers; assay type: in vivo, Sprague-Dawley rats; conditions: 200 mg/kg diet
in vivo toxicity = conditions: preliminary data
NB4 cells [2] = test: retinoid induction of differentiation of NB4 cells (NBT); assay type: cell-based, Human; conditions: for EC30: read-out: ED30 NB4 cell differentiation; for EC50: NB-4, 96 h, read-out: ED50 (nM) NB4
Description: NB4 cells were obtained from Dr. Waxman after he received them from Dr. M. Lanotte. […] The cell were grown at 37° C. in a humidified atmosphere of 5% CO2 in air. Cell density was estimated on an electronic particle counter (Coulter electronic, Hialeah, Fla.) and cell viability with trypan bleu dye exclusion.
as §1, §2

NB4 cells [3] = test: retinoid metabolism in NB4 cells; assay type: in vitro ADME
[4] = body weight in MNU mammary cancer study
NB4 cells [5] = conditions: alone; previously shown by Breitman and coworkers; cited from earlier work
mouse skin papilloma [6] = conditions: 45.9 nmol dose
Description: The mouse skin antipapilloma assay measured the ED50 values for retinoid tumor inhibition on the dorsal skin of mice. The inhibition of mouse skin papilloma by retinoids was performed according to a modification of the procedure developed by Verma and Boutwell (14) as reported previously by Muccio et al. (8).
The UAB30 retinoids were evaluated next for their activity in preventing the chemical induction of papillomas on mouse skin (14).

[7] = system: acute promyelocytic leukemia (APL); conditions: patients with APL; cited from earlier work
mouse skin papilloma [8] = conditions: ref (8); cited from earlier work
chick skin CRABP = target: T2, chick skin CRABP (Gallus gallus, UniProt A0A8V1AB82); test: chick skin CRABP radioligand binding assay; conditions: [3H]-(all-E)-RA radioligand
T2 sequence (A0A8V1AB82 88-225): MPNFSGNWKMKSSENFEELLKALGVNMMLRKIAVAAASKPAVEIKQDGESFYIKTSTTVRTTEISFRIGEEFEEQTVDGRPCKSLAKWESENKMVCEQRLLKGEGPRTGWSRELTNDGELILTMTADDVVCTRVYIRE

[9] = read-out: normalized percent inhibition of CFU-GM colony growth, patient J83 (%)
[10] = read-out: normalized percent inhibition of CFU-GM colony growth, patient J84 (%)

Q: With `CCCCCCCOc1cc2c(cc1/C(C)=C/c1ccc(C(=O)O)cc1)C(C)(C)CCS2(=O)=O` [Ro-41-5253] as the molecule, how does the “antagonism of (all-E)-RA induced RARα transcription” value (RARα) read?
A: two-fold more active; also recorded: exhibited antagonism at each concentration of (all-E)-RA

Q: With `CC(=C/C=C/C(C)=C/C(=O)O)/C=C1\CCCc2ccccc21` [(9Z)-UAB30, (2E,4E,6E,8E)-8-(3',4'-Dihydro-1'(2'H)-naphthalen-1'-ylidene)3,7-dimethyl-2,4,6-octatrienoic acid] as the molecule, how does the inhibition at 0.1 µM (JMML cells; [9]) read?
A: 76%

Q: What about the inhibition at 1 µM (JMML cells; [9]) of the same molecule?
A: 79%

Q: And the inhibition at 0.01 µM (JMML cells; [10])?
A: 3%

Q: And the inhibition at 0.1 µM (JMML cells; [10])?
A: 44%

Q: What about the inhibition at 1 µM (JMML cells; [10]) of the same molecule?
A: 39%

Q: What about the EC50 (HL-60 cells) of the same molecule?
A: 8000 nM

Q: And the “growth of MNU-induced mammary cancers” value [1]?
A: inhibited the growth of the MNU-induced mammary cancers

Q: What about the “average mammary tumor weight/rat” value ([1]; 26 days post MNU) of the same molecule?
A: 0.05 grams

Q: And the “average mammary tumor weight/rat” value ([1]; 33 days post MNU)?
A: 0.05 grams

Q: And the “average mammary tumor weight/rat” value ([1]; 40 days post MNU)?
A: 0.10 grams

Q: And the “average mammary tumor weight/rat” value ([1]; 47 days post MNU)?
A: 0.30 grams

Q: And the “average mammary tumor weight/rat” value ([1]; 54 days post MNU)?
A: 0.45 grams

Q: What about the “average mammary tumor weight/rat” value ([1]; 61 days post MNU) of the same molecule?
A: 0.55 grams

Q: What about the “average mammary tumor weight/rat” value ([1]; 68 days post MNU) of the same molecule?
A: 0.55 grams

Q: And the “average mammary tumor weight/rat” value ([1]; 75 days post MNU)?
A: 0.55 grams

Q: And the “average mammary tumor weight/rat” value ([1]; 82 days post MNU)?
A: 0.70 grams

Q: What about the “average mammary tumor weight/rat” value ([1]; 89 days post MNU) of the same molecule?
A: 0.90 grams

Q: And the “average mammary tumor weight/rat” value ([1]; 96 days post MNU)?
A: 1.00 grams

Q: What about the “average mammary tumor weight/rat” value ([1]; 103 days post MNU) of the same molecule?
A: 1.35 grams

Q: What about the “average mammary tumor weight/rat” value ([1]; 110 days post MNU) of the same molecule?
A: 1.75 grams

Q: What about the “average mammary tumor weight/rat” value ([1]; 117 days post MNU) of the same molecule?
A: 2.00 grams

Q: And the “average mammary tumor weight/rat” value ([1]; 124 days post MNU)?
A: 2.20 grams

Q: And the “average mammary tumor weight/rat” value ([1]; 131 days post MNU)?
A: 2.35 grams

Q: What about the “toxicity” value (in vivo toxicity) of the same molecule?
A: much less toxic than 9-cis-retinoic acid

Q: What about the EC30 (NB4 cells [2]; Homo sapiens, NB-4, 72 h) of the same molecule?
A: > 10000 µM

Q: What about the EC50 (NB4 cells [2]; Homo sapiens) of the same molecule?
A: 10000 nM

Q: And the “NB4 cell differentiation” value (NB4 cells [2]; retinoid alone)?
A: no effect

Q: What about the “metabolism / metabolic stability” value (NB4 cells [3]) of the same molecule?
A: metabolically stable for 5 days

Q: And the “overall body growth” value ([4]; 200 mg/kg diet)?
A: no obvious effect

Q: And the average body weight/rat ([4]; 43 days of age, 200 mg/kg diet from day 53)?
A: 133 grams

Q: And the average body weight/rat ([4]; 57 days of age, 200 mg/kg diet)?
A: 158 grams

Q: And the average body weight/rat ([4]; 64 days of age, 200 mg/kg diet)?
A: 174 grams

Q: And the average body weight/rat ([4]; 71 days of age, 200 mg/kg diet)?
A: 188 grams

Q: What about the average body weight/rat ([4]; 78 days of age, 200 mg/kg diet) of the same molecule?
A: 197 grams

Q: And the average body weight/rat ([4]; 85 days of age, 200 mg/kg diet)?
A: 203 grams

Q: And the average body weight/rat ([4]; 92 days of age, 200 mg/kg diet)?
A: 210 grams

Q: And the average body weight/rat ([4]; 99 days of age, 200 mg/kg diet)?
A: 211 grams

Q: And the average body weight/rat ([4]; 106 days of age, 200 mg/kg diet)?
A: 215 grams

Q: And the average body weight/rat ([4]; 113 days of age, 200 mg/kg diet)?
A: 216 grams

Q: What about the average body weight/rat ([4]; 120 days of age, 200 mg/kg diet) of the same molecule?
A: 218 grams

Q: What about the average body weight/rat ([4]; 127 days of age, 200 mg/kg diet) of the same molecule?
A: 223 grams

Q: What about the average body weight/rat ([4]; 134 days of age, 200 mg/kg diet) of the same molecule?
A: 227 grams

Q: What about the average body weight/rat ([4]; 141 days of age, 200 mg/kg diet) of the same molecule?
A: 236 grams

Q: What about the average body weight/rat ([4]; 149 days of age, 200 mg/kg diet) of the same molecule?
A: 234 grams

Q: And the average body weight/rat ([4]; 155 days of age, 200 mg/kg diet)?
A: 236 grams

Q: What about the average body weight/rat ([4]; 162 days of age, 200 mg/kg diet) of the same molecule?
A: 238 grams

Q: And the average body weight/rat ([4]; 169 days of age, 200 mg/kg diet)?
A: 242 grams

Q: And the average body weight/rat ([4]; 176 days of age, 200 mg/kg diet)?
A: 243 grams

Q: What about the average body weight/rat ([4]; 183 days of age, 200 mg/kg diet) of the same molecule?
A: 244 grams

Q: Which “NB4 cell differentiation” value (NB4 cells [5]) does the source give for `CC1=C(/C=C/C(C)=C/C=C/C(C)=C/C(=O)Nc2ccc(O)cc2)C(C)(C)CCC1` [4-HPR, 4-hydroxyphenylretinamide] here?
A: does not induce NB4 cells to differentiate

Q: Which inhibition at 0.1 µM (JMML cells; read-out: normalized percent inhibition of CFU-GM colony growth, patient J43 (%), 10^-7 M) does the source give for `CC1=C(/C=C/C(C)=C/C=C/C(C)=C/C(=O)O)C(C)(C)CCC1` [(all-E)-RA, all-trans-retinoic acid, reference compound] here?
A: 74%

Q: What about the inhibition at 0.1 µM (JMML cells; read-out: normalized percent inhibition of CFU-GM colony growth, patient J83 (%), 10^-7 M) of the same molecule?
A: 88%

Q: And the inhibition at 0.01 µM (JMML cells; read-out: normalized percent inhibition of CFU-GM colony growth, patient J84 (%), 10^-8 M)?
A: 33%

Q: And the inhibition at 1 µM (JMML cells; read-out: percent inhibition of CFU-GM colony growth (not normalized), 10^-6 M, J43 patient cells)?
A: 85%

Q: What about the inhibition at 1 µM (JMML cells; read-out: percent inhibition of CFU-GM colony growth (not normalized), 10^-6 M, J83 patient cells) of the same molecule?
A: 78%

Q: What about the inhibition at 1 µM (JMML cells; read-out: percent inhibition of CFU-GM colony growth (not normalized), 10^-6 M, J84 patient cells) of the same molecule?
A: 61%

Q: And the EC50 (HL-60 cells)?
A: 120 nM

Q: What about the “prevention of papilloma (tumor) formation” value (mouse skin papilloma [6]) of the same molecule?
A: 95%

Q: What about the EC50 (NB4 cells [2]; Homo sapiens, 4-day induction of differentiation) of the same molecule?
A: 610 nM

Q: And the EC30 (NB4 cells [2]; in combination with 9-cis-UAB30 (1:10), day 3)?
A: 0.05 µM

Q: What about the EC30 (NB4 cells [2]; in combination with all-trans-UAB30 (1:10)) of the same molecule?
A: 2.8 µM

Q: What about the EC30 (NB4 cells [2]; retinoid alone, 3 days) of the same molecule?
A: 0.81 µM

Q: What about the complete remission rate [7] of the same molecule?
A: 90%

Q: What about the “ED50 skin antipapilloma assay” value (mouse skin papilloma [8]) of the same molecule?
A: 3.0 nmol

Q: What about the IC50 (chick skin CRABP) of the same molecule?
A: 0.6 µM

Source: US6172112A, “Retinoids and use thereof” (priority 1999, dated 2001)
